Positions of bridges follow the written chain, without caps; N, C: chain ends. Residues, ends and D or L forms follow the SMILES beside them.
Experiments:
Format in all cases: binding
[1] = target: IgG4 (Homo sapiens, UniProt P01861); parameters: all human subtypes derived from myeloma patients; purchased Calbiochem 400126; host or cells: myeloma patients
Summary of the method: (§1)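 Read-out is A280 of unbound IgG (1.4 mg/ml extinction coefficient), with percent bound derived against non-filtered or negative controls. Targets were incubated with immobilized peptides in PBST or TBST for 1-1.5 h at room temperature. Hydrolyzed Sepharose and immobilized Protein A serve as negative and positive controls.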

[2] = test system: human IgG
Summary of the method: (§2)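 Steps: dilute IgG in PBST or TBST; incubate with immobilized peptide 1-1.5 h, RT; collect unbound by centrifugation; measure A280; wash three times; elute with 0.1 M sodium bicarbonate pH 8.5 and/or 0.1 M sodium citrate pH 4.0 for 30-60 min and quantitate.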

[3] = test system: mouse IgG
Summary of the method: as §2

[4] = test system: bovine IgG
Summary of the method: as §2

[5] = test system: goat IgG
Summary of the method: as §2

[6] = target: T1, human IgG1 (Homo sapiens, UniProt P01857)
T1 construct: all human subtypes derived from myeloma patients; purchased Calbiochem 400120; host or cells: myeloma patients
T1 sequence (P01857 1-330 isoform P01857-1): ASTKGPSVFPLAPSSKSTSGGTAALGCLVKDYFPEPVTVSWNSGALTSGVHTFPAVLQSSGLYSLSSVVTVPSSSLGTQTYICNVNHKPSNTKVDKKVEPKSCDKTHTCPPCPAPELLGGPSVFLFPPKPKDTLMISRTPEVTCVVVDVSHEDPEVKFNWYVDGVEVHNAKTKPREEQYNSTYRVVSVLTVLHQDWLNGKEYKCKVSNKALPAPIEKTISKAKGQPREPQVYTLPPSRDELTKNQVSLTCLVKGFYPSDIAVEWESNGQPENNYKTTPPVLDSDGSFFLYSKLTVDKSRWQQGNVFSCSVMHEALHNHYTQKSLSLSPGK
Summary of the method: (§3)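 Static binding, peptide resin + IgG, 1-1.5 h RT with shaking, PBST pH 7.2 or TBST pH 7.5. Flow-through read at A280 vs buffer blank; % bound = control minus unbound. Elution at pH 8.5 bicarbonate and/or pH 4.0 citrate, 30-60 min.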

[7] = target: T2, human IgG2 (Homo sapiens, UniProt P01859)
T2 construct: all human subtypes derived from myeloma patients; purchased Calbiochem 400122; host or cells: myeloma patients
T2 sequence (P01859 1-326 isoform P01859-1): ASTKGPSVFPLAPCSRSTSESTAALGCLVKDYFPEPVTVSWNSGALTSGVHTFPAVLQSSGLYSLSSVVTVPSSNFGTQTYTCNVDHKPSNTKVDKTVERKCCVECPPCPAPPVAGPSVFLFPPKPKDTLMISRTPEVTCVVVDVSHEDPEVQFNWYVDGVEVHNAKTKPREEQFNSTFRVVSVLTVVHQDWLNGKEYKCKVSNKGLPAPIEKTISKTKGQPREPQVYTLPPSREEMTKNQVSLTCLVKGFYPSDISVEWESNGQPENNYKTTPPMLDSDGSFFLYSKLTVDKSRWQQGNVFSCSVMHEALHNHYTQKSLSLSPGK
Summary of the method: as §1

[8] = target: IgG3 (Homo sapiens, UniProt P01860); parameters: all human subtypes derived from myeloma patients; purchased Calbiochem 400124; host or cells: myeloma patients
IgG3, sequence (P01860 1-377 isoform P01860-1): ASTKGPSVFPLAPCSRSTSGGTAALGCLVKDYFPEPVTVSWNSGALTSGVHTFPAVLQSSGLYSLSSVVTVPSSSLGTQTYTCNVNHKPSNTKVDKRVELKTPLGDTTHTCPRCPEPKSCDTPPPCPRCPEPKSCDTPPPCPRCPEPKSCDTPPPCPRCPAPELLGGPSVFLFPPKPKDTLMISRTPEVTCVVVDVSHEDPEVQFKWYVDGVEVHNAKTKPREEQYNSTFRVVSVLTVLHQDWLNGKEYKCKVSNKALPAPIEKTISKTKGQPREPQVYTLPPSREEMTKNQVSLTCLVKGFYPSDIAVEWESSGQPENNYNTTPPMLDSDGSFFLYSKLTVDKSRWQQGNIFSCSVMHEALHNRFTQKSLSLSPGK
Summary of the method: as §3

[9] = Table 9, immobilized peptide, 5.0 mg/ml resin load
[10] = Table 10, elution 0.1 M sodium bicarbonate buffer, pH 8.5
[11] = Table 10, elution 0.1 M sodium citrate buffer, pH 4.0

IgG4, sequence (P01861 1-327 isoform P01861-1): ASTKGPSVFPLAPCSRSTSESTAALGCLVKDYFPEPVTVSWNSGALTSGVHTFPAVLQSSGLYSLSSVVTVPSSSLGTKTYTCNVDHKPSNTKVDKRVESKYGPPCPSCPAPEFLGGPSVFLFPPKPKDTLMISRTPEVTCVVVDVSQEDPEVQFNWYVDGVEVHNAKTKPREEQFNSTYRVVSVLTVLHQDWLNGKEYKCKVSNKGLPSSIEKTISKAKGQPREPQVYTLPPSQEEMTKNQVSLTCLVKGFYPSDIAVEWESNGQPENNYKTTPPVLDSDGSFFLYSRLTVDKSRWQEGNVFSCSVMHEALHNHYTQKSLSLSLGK

CC[C@H](C)[C@@H]1NC(=O)[C@H](CC(C)C)NC(=O)[C@H](CCC(=O)O)NC(=O)CNC(=O)[C@H](Cc2c[nH]c3ccccc23)NC(=O)[C@H]([C@@H](C)O)NC(=O)[C@H]([C@@H](C)O)NC(=O)[C@H](Cc2ccc(O)cc2)NC(=O)[C@H](C(C)C)NC(=O)[C@@H](NC(=O)[C@H](CCSC)NC(=O)[C@H](Cc2c[nH]cn2)NC(=O)[C@H](CC(=O)O)NC(=O)[C@H](CC(=O)O)NC(=O)CNC(C)=O)CSSC[C@@H](C(=O)N[C@@H](CC(=O)O)C(=O)N[C@@H](CC(N)=O)C(=O)N[C@@H](Cc2c[nH]cn2)C(=O)N[C@@H](CCC(=O)O)C(=O)N2CCC[C@H]2C(=O)NCC(=O)N2CCC[C@H]2C(=O)N[C@@H](CCC(=O)O)C(=O)NCC(=O)NCC(=O)NCC(=O)N[C@@H](CCCCN)C(N)=O)NC(=O)[C@H](Cc2c[nH]c3ccccc23)NC1=O [DX249] (Ac-GDDHMCVYTTWGELIWCDNHEPGPEGGGK-NH2; disulfide 6-17)
% IgG Capture - Batch Binding, Human IgG4 [1, 9]: 82% | Human IgG4 bdg % (% of Total Load) ([1]; Table 10, batch binding): 82% | Human IgG4 elu pH 8.5 (% of Total Load) [1, 10]: 66% | Human IgG4 elu pH 4.0 (% of Total Load) [1, 11]: 54% | hIgG4 elution pH 2.5 (% of Total Load) ([1]; Table 13): 42% | hIgG4 elution pH 3.0 (% of Total Load) ([1]; Table 13): 43% | hIgG4 elution pH 3.5 (% of Total Load) ([1]; Table 13): 30% | hIgG4 elution pH 4.5 (% of Total Load) ([1]; Table 13): 10% | hIgG4 elution pH 5.5 (% of Total Load) ([1]; Table 13): 4% | hIgG4 elution pH 9.0 (% of Total Load) ([1]; Table 13): 53% | hIgG4 elution pH 9.5 (% of Total Load) ([1]; Table 13): 59% | % IgG Capture - Batch Binding, Human IgG [2]: 84% | % IgG Capture - Batch Binding, Mouse IgG [3]: 0% | % IgG Capture - Batch Binding, Bovine IgG [4]: 0% | % IgG Capture - Batch Binding, Goat IgG [5]: 0% | % IgG Capture - Batch Binding, Human IgG1 [6, 9]: 91% | Human IgG1 bdg % (% of Total Load) ([6]; Table 10, batch binding): 91% | Human IgG1 elu pH 8.5 (% of Total Load) [6, 10]: 63% | Human IgG1 elu pH 4.0 (% of Total Load) [6, 11]: 51% | hIgG1 elution pH 2.5 (% of Total Load) ([6]; Table 13): 65% | hIgG1 elution pH 3.0 (% of Total Load) ([6]; Table 13): 69% | hIgG1 elution pH 3.5 (% of Total Load) ([6]; Table 13): 69% | hIgG1 elution pH 4.5 (% of Total Load) ([6]; Table 13): 37% | hIgG1 elution pH 5.5 (% of Total Load) ([6]; Table 13): 1% | hIgG1 elution pH 9.0 (% of Total Load) ([6]; Table 13): 65% | hIgG1 elution pH 9.5 (% of Total Load) ([6]; Table 13): 68% | % IgG Capture - Batch Binding, Human IgG2 [7, 9]: 92% | Human IgG2 bdg % (% of Total Load) ([7]; Table 10, batch binding): 92% | Human IgG2 elu pH 8.5 (% of Total Load) [7, 10]: 54% | Human IgG2 elu pH 4.0 (% of Total Load) [7, 11]: 63% | hIgG2 elution pH 2.5 (% of Total Load) ([7]; Table 13): 71% | hIgG2 elution pH 3.0 (% of Total Load) ([7]; Table 13): 73% | hIgG2 elution pH 3.5 (% of Total Load) ([7]; Table 13): 63% | hIgG2 elution pH 4.5 (% of Total Load) ([7]; Table 13): 39% | hIgG2 elution pH 5.5 (% of Total Load) ([7]; Table 13): 1% | hIgG2 elution pH 9.0 (% of Total Load) ([7]; Table 13): 60% | hIgG2 elution pH 9.5 (% of Total Load) ([7]; Table 13): 67% | % IgG Capture - Batch Binding, Human IgG3 [8, 9]: 0% | Human IgG3 bdg % (% of Total Load) ([8]; Table 10, batch binding): 3% | Human IgG3 elu pH 8.5 (% of Total Load) [8, 10]: 0% | Human IgG3 elu pH 4.0 (% of Total Load) [8, 11]: 0% | hIgG3 elution pH 2.5 (% of Total Load) ([8]; Table 13): 0% | hIgG3 elution pH 3.0 (% of Total Load) ([8]; Table 13): 0% | hIgG3 elution pH 3.5 (% of Total Load) ([8]; Table 13): 0% | hIgG3 elution pH 4.5 (% of Total Load) ([8]; Table 13): 0% | hIgG3 elution pH 5.5 (% of Total Load) ([8]; Table 13): 0% | hIgG3 elution pH 9.0 (% of Total Load) ([8]; Table 13): 0% | hIgG3 elution pH 9.5 (% of Total Load) ([8]; Table 13): 0%

Reference: patent publication US20030199671A1, “Binding molecules for Fc-region polypeptides” (priority 2001, published 2003)
